# Calls of active or inactive are those of the source. The rule behind the calls is not given here.
# Assays:
# [1] = molecular target: Voltage-gated inwardly rectifying potassium channel KCNH2 (Homo sapiens, UniProt Q12809); test: Inhibition of hERG channel expressed in HEK293 cells at -80 mV holding potential by automated patch clamp method; format: toxicity, cell-based
# [2] = molecular target: T1, Nuclear factor erythroid 2-related factor 2 (Rattus norvegicus) (UniProt O54968); test: Activation of Nrf2 pathway in rat PC-12 cells assessed as decrease in Nrf2 accumulation in cytoplasm at 0.5 to 10 uM measured after 3 hrs by Western blot analysis; format: cell-based; conditions: filed as activator, dose 0.5-10 µM
# T1 sequence (whole entry): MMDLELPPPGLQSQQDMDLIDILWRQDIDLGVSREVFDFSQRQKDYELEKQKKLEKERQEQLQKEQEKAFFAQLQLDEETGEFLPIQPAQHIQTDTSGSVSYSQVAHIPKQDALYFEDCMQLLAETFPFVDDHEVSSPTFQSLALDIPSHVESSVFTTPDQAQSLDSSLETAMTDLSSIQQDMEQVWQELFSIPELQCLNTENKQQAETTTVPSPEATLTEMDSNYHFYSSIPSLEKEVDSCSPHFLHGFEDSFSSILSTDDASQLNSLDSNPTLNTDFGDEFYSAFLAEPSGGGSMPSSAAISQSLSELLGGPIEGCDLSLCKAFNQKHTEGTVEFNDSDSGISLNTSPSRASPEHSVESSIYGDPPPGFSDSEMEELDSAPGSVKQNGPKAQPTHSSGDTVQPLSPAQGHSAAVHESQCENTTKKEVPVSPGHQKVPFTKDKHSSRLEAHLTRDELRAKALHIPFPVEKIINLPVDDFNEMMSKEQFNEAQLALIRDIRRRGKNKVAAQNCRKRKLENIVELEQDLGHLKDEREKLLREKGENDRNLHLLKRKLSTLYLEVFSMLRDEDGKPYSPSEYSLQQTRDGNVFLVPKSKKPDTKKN
# Rattus norvegicus [3] = test: (§1) Neuroprotective activity in Sprague-Dawley rat model of middle cerebral artery occlusion-induced ischemia-reperfusion injury assessed as decrease in cerebral infarct volume at 3 mg/kg, ip preincubated for 1 hrs followed by MCAO operation and further incubated with compound for 4 hrs after reperfusion by TTC staining based assay; format: functional; design: scale not given: the % may be the effect or the level left; conditions: time 5 hrs
# [4] = Cytotoxicity against rat PC-12 cells assessed as reduction in cell viability by MTT assay; format: toxicity, cell-based
# Rattus norvegicus [5] = test: Neuroprotective activity in Sprague-Dawley rat model of middle cerebral artery occlusion-induced ischemia-reperfusion injury assessed as attenuation of behavioral deficit at 10 mg/kg, ip preincubated for 1 hrs followed by MCAO operation and further incubated with compound for 4 hrs after reperfusion; format: functional; conditions: time 5 hrs
# Rattus norvegicus [6] = test: Neuroprotective activity in Sprague-Dawley rat model of middle cerebral artery occlusion-induced ischemia-reperfusion injury assessed as attenuation of behavioral deficit at 30 mg/kg, ip preincubated for 1 hrs followed by MCAO operation and further incubated with compound for 4 hrs after reperfusion; format: functional; conditions: time 5 hrs
# [7] = Acute toxicity in BALB/c mouse assessed as survival rate at 175 mg/kg, ip measured after 7 days; format: organism-based; conditions: in vivo, 168 h, time 7 day
# [8] = Metabolic stability in human plasma assessed as parent compound remaining at 200 uM measured after 120 min by LC-MS/MS analysis relative to control; format: ADME, cell-free; conditions: read-out: Stability
# [9] = Clearence in Sprague-Dawley rat at 5 mg/kg, ip measured upto 24 hrs by LC-MS/MS analysis; format: ADME, organism-based; conditions: in vivo
# PC-12 [10] = test: Neuroprotective activity against SNP induced rat PC-12 cells assessed as increase in cell viability at 5 uM preincubated for 2 hrs followed by SNP stimulation for 24 hrs by MTT assay relative to control; format: functional
# [11] = MRT in Sprague-Dawley rat at 5 mg/kg, ip measured upto 24 hrs by LC-MS/MS analysis; format: ADME, organism-based; conditions: in vivo
# [12] = Metabolic stability in human plasma assessed as parent compound remaining at 200 uM measured after 15 min by LC-MS/MS analysis relative to control; format: ADME, cell-free; conditions: read-out: Stability
# [13] = Acute toxicity in ip dosed BALB/c mouse assessed as lethal dose measured after 7 days; format: organism-based; conditions: in vivo, time 7 day
# [14] = MRT in Sprague-Dawley rat at 5 mg/kg, iv measured upto 24 hrs by LC-MS/MS analysis; format: ADME, organism-based; conditions: in vivo
# PC-12 [15] = test: Neuroprotective activity against SNP induced rat PC-12 cells assessed as increase in cell viability at 1 uM preincubated for 2 hrs followed by SNP stimulation for 24 hrs by MTT assay relative to control; format: functional
# [16] = molecular target: T1, Nuclear factor erythroid 2-related factor 2 (Rattus norvegicus); test: Activation of Nrf2 pathway in rat PC-12 cells assessed as increase in HO-1 level at 2.5 to 10 uM measured after 3 hrs by Western blot analysis; format: cell-based; conditions: filed as activator, dose 2.5-10 µM
# [17] = Tmax in Sprague-Dawley rat at 5 mg/kg, iv measured upto 24 hrs by LC-MS/MS analysis; format: ADME, organism-based; conditions: in vivo
# [18] = Metabolic stability in human plasma assessed as parent compound remaining at 200 uM measured after 90 min by LC-MS/MS analysis relative to control; format: ADME, cell-free; conditions: read-out: Stability
# [19] = molecular target: T1, Nuclear factor erythroid 2-related factor 2 (Rattus norvegicus); test: Activation of Nrf2 pathway in rat PC-12 cells assessed as increase in GCLC level at 2.5 to 10 uM measured after 3 hrs by Western blot analysis; format: cell-based; conditions: filed as activator, dose 2.5-10 µM
# [20] = Metabolic stability in human plasma assessed as half life at 200 uM by LC-MS/MS analysis relative to control; format: ADME, cell-free
# [21] = Cytotoxicity against human HaCaT cells assessed as reduction in cell viability by MTT assay; format: toxicity, cell-based
# [22] = Plasma protein binding in human plasma at 10 uM incubated for 6 hrs by LC-MS/MS based equilibrium dialysis method; format: ADME, cell-free; conditions: read-out: PPB (converted)
# [23] = Cmax in Sprague-Dawley rat at 5 mg/kg, iv measured upto 24 hrs by LC-MS/MS analysis; format: ADME, organism-based; design: dose 5 mg/kg, time < 24 hrs, route iv; conditions: in vivo
# PC-12 [24] = test: Neuroprotective activity against SNP induced rat PC-12 cells assessed as increase in cell viability at 10 uM preincubated for 2 hrs followed by SNP stimulation for 24 hrs by MTT assay relative to control; format: functional
# [25] = Metabolic stability in human plasma assessed as parent compound remaining at 200 uM measured after 60 min by LC-MS/MS analysis relative to control; format: ADME, cell-free; conditions: read-out: Stability
# [26] = Plasma protein binding in Sprague-Dawley rat plasma at 10 uM incubated for 6 hrs by LC-MS/MS based equilibrium dialysis method; format: ADME, cell-free; conditions: read-out: PPB (converted)
# [27] = molecular target: T1, Nuclear factor erythroid 2-related factor 2 (Rattus norvegicus); test: Activation of Nrf2 pathway in rat PC-12 cells assessed as increase in NQO1 level at 2.5 to 10 uM measured after 3 hrs by Western blot analysis; format: cell-based; conditions: filed as activator, dose 2.5-10 µM
# [28] = Acute toxicity in BALB/c mouse assessed as survival rate at 1000 mg/kg, ip measured after 7 days; format: organism-based; conditions: in vivo, 168 h, time 7 day
# Rattus norvegicus [29] = test: as §1, with “10” for “3”; format: functional; design: scale not given: the % may be the effect or the level left; conditions: time 5 hrs
# [30] = molecular target: T1, Nuclear factor erythroid 2-related factor 2 (Rattus norvegicus); test: Activation of Nrf2 pathway in rat PC-12 cells assessed as Nrf2 accumulation in nucleus measured after 3 hrs by Western blot analysis; format: cell-based; conditions: filed as activator, dose 2.5-10 µM, DDE = dose-dependent effect
# [31] = Tmax in Sprague-Dawley rat at 5 mg/kg, ip measured upto 24 hrs by LC-MS/MS analysis; format: ADME, organism-based; conditions: in vivo
# [32] = Half life in Sprague-Dawley rat at 5 mg/kg, iv measured upto 24 hrs by LC-MS/MS analysis; format: ADME, organism-based; conditions: in vivo
# Sequence of Voltage-gated inwardly rectifying potassium channel KCNH2 (Q12809 whole entry): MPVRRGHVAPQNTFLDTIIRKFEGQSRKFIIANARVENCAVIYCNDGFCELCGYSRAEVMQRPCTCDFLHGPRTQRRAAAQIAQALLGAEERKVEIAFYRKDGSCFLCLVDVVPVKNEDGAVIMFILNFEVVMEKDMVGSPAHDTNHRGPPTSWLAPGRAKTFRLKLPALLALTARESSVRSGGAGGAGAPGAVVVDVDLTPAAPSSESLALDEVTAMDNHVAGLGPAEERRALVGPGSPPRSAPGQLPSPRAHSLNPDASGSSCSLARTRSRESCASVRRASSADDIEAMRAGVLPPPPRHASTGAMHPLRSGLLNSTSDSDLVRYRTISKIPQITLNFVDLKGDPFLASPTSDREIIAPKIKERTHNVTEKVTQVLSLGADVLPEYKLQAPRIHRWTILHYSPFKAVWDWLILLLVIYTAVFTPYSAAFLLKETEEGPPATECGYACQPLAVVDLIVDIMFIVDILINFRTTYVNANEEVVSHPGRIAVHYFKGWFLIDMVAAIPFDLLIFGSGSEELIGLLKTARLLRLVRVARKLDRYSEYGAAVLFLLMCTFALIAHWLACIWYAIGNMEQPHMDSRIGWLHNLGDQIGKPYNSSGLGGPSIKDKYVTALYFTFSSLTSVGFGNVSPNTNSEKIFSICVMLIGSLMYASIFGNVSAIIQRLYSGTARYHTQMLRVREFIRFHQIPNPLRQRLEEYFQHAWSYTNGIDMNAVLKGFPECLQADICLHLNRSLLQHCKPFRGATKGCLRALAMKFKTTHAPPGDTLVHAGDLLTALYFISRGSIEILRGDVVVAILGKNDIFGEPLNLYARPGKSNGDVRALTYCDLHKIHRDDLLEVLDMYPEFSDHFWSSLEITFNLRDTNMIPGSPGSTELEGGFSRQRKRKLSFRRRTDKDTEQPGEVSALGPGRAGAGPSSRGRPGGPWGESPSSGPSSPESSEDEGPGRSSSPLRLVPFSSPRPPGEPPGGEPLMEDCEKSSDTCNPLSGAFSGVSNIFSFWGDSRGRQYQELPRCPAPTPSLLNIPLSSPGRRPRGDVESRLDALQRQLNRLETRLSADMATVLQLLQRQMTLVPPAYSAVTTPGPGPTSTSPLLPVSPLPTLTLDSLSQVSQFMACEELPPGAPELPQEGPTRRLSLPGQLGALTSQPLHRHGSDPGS
smiles,measurement,setting,value
Cc1cc(C)cc(-n2nc(-c3ccc(C(F)(F)F)cc3O)nc2-c2ccccc2O)c1,IC50,[1],> 30 µM
same,Activity,[2],Active
same,Activity,Rattus norvegicus [3],16.37%
same,IC50,[4],263 µM
same,Activity,Rattus norvegicus [5],1.6
same,Activity,Rattus norvegicus [6],1.5
same,Activity,[7],Non-Toxic
same,"remaining at 2 h, 200 µM",[8],88.9%
same,CL,[9],0.0017 (mg/kg)/(ng/ml)/hr
same,Activity,PC-12 [10],101.59%
same,MRT,[11],16.5 h
same,"remaining at 0.25 h, 200 µM",[12],95.8%
same,LD50 at 168 h,[13],789 mg/kg
same,MRT,[14],2.84 h
same,Activity,PC-12 [15],76.86%
same,Activity,[16],Active
same,Tmax,[17],4.8 min
same,"remaining at 1.5 h, 200 µM",[18],89.5%
same,Activity,[19],Active
same,half-life at 200 µM,[20],> 529 min
same,IC50,[21],127 µM
same,"fraction unbound at 6 h, 10 µM",[22],0.0006
same,Cmax,[23],6910 ng/mL
same,Activity,PC-12 [24],105.13%
same,"remaining at 1 h, 200 µM",[25],90.7%
same,"fraction unbound at 6 h, 10 µM",[26],0.0008
same,Activity,[27],Active
same,Activity,[28],Toxic
same,Activity,Rattus norvegicus [29],14.49%
same,Activity,[30],Dde
same,Tmax,[31],2 h
same,half-life,[32],496 min

# — ChEMBL document CHEMBL5143655, “Synthesis and biological evaluation of 1,2,4-triazole derivatives as potential Nrf2 activators for the treatment of cerebral ischemic injury” (Eur J Med Chem, 2022)
